Measurements as given in EP4660196A1, “CRYSTAL FORM OF COMPOUND, PREPARATION METHOD THEREFOR AND USE THEREOF” (Felicamed Biotechnology Co., Ltd., priority 2023, dated 2024).
“And” between values parts separate entries of the source, which are not always exact repeats. Equal entries are not always repeated. Structures can show the parent of a compound that is named as a salt. Where two headings read alike, the source gives them in different places.

What was measured:
[1] = format: physicochemical; conditions: 37°C; for S: solubility: calculated as free form; for pH: pH of filtrate
[2] = format: physicochemical; conditions: 24 h; for S: solubility / pH: room temperature; for S: solubility: calculated as free form; for FC: crystal transfer: XRPD of solid; for pH: pH of filtrate
[3] = DVS
Procedure: DVS isotherms were collected on an SMS (Surface Measurement Systems) DVS Intrinsic. Relative humidity at 25°C was calibrated using the deliquescence points of LiCl, Mg(NO3)2, and KCl. Table 9 DVS testing parameters

[4] = for Carr index: (tapped density - bulk density) / tapped density; for Average angle of repose (°) / Average bulk density / Average tapped density: mean of three tests
Procedure: A method for testing the density and the tapped density included: (1) a certain mass of to-be-assessed sample was placed into a 5 mL measuring cylinder, and the volume at this moment was recorded. The bulk density was calculated by dividing the mass of the sample by the volume at this moment. (2) The measuring cylinder was slightly tapped 200 times, the final volume was recorded, and the tapped density was calculated by dividing the mass of the sample by the final volume. (3) Three parallel tests were conducted. A method for testing the angle of repose included: (1) a funnel was fixed vertically to a bottom surface, and the material was slowly placed into the funnel. (2) A well-proportioned cone of the material was formed on the bottom surface. The height and bottom surface diameter of the cone were measured. (3) Three parallel tests were conducted.
Angle of repose α = […], where h is the cone height, and D is the cone diameter.

[5] = Mechanical stability (grinding, tableting at 350 MPa, XRPD); format: physicochemical
[6] = Pharmacokinetics of hydrochloride crystal form A in Beagle dogs (intragastric); format: in vivo; conditions: dog
Procedure: Three 31-month-old male Beagle dogs used in this experiment were purchased from Beijing Marshall Bioresources Co., Ltd., with the animal qualification certificate No. 110318201100056783.
In this experiment, three male Beagle dogs were randomly selected for administration. All the animals were fasted for at least 12 h before administration and were fed again 4 h after administration. […] Table 28 Administration methods for animals
The blood samples from the animals were collected through the jugular vein, with a blood sample volume of 0.5 mL/time. All collected whole blood samples were placed in centrifuge tubes containing EDTA-K2, and the centrifuge tubes were turned upside down to allow the anticoagulant and blood to be fully mixed. All the blood samples were placed on wet ice before centrifugation and centrifuged at 1500 g for 10 min to separate plasma. The plasma samples were transferred to sample tubes and stored at -40°C to […] until analysis.
The drug concentration in the plasma of each Beagle dog was detected by an LC-MS/MS method. […]

[7] = Solid-state stability (XRPD, UPLC purity); conditions: for Crystal form Transform: XRPD; for Purity (area%): starting purity 99.82 (hydrochloride), 99.72 (free); for Area (%): UPLC main peak (#Peak 1, RRT 1.00)
[8] = listed as hydrochloride crystal form A
[9] = single values of three parallel tests

Which results are given for `CC[S@@](=N)(=O)C[C@H]1CC[C@H](N(C)c2ncnc3[nH]ccc23)CC1` [Hydrochloride crystal form A]?
S: solubility ([1]; FaSSIF, 1 h, 60 min): >9500 µg/mL; S: solubility ([1]; FaSSIF, 2 h, 120 min): >9700 µg/mL; S: solubility ([1]; FaSSIF, 4 h, 240 min): >9800 µg/mL; S: solubility ([1]; FaSSIF, 24 h, 1440 min): >9600 µg/mL; S: solubility ([1]; FeSSIF, 1 h, 60 min): >10400 µg/mL; S: solubility ([1]; FeSSIF, 2 h, 120 min): >10200 µg/mL; S: solubility ([1]; FeSSIF, 4 h, 240 min): >10200 µg/mL; S: solubility ([1]; FeSSIF, 24 h, 1440 min): >10000 µg/mL; S: solubility ([1]; H2O, 1 h, 60 min): >9300 µg/mL; S: solubility ([1]; H2O, 4 h, 240 min): >9500 µg/mL; S: solubility ([1]; SGF, 1 h, 60 min): >9800 µg/mL; S: solubility ([1]; SGF, 2 h, 120 min): >9900 µg/mL; S: solubility ([1]; SGF, 4 h, 240 min): >9800 µg/mL; S: solubility ([1]; SGF, 24 h, 1440 min): >10300 µg/mL; pH ([1]; FaSSIF, 1 h): 5.0; pH ([1]; FaSSIF, 2 h): 5.1; pH ([1]; FaSSIF, 4 h): 5.1; pH ([1]; FaSSIF, 24 h): 5.0; pH ([1]; FeSSIF, 1 h): 4.9; pH ([1]; FeSSIF, 2 h): 4.9; pH ([1]; FeSSIF, 4 h): 4.9; pH ([1]; FeSSIF, 24 h): 4.8; pH ([1]; H2O, 1 h): 4.0; pH ([1]; H2O, 2 h): 4.0; pH ([1]; H2O, 4 h): 4.0; pH ([1]; H2O, 24 h): 4.0; pH ([1]; SGF, 1 h): 2.9; pH ([1]; SGF, 2 h): 3.0; pH ([1]; SGF, 4 h): 3.0; pH ([1]; SGF, 24 h): 2.9; S: solubility ([2]; Buffer (pH=2.0)): >9500 µg/mL; S: solubility ([2]; Buffer (pH=7.4)): 2500 µg/mL; FC: crystal transfer ([2]; Buffer (pH=7.4)): Yes; FC: crystal transfer ([2]; Buffer (pH=7.4), listed as hydrochloride crystal form A): transformed into the free crystal form A; pH ([2]; Buffer (pH=2.0)): 3.5; pH ([2]; Buffer (pH=4.5)): 4.4; pH ([2]; Buffer (pH=7.4)): 6.2; Hygroscopic weight gain (wt%) at 25°C/80% RH [3]: 0.47 wt%; Hygroscopic weight gain (wt%) at 25°C/80% RH [3, 8]: 0.47 wt%; Carr index [4]: 41%; Carr index [4, 8]: 41%; Average angle of repose (°) [4]: 33.9 °; Average bulk density [4]: 0.14 g/mL; Average tapped density [4]: 0.24 g/mL; Average angle of repose (°) [4, 8]: 33.9 °; Average bulk density [4, 8]: 0.14 g/mL; Average tapped density [4, 8]: 0.24 g/mL; Angle of repose (°) [4, 9]: 33.7 ° and 37.2 ° and 30.8 °; Bulk density [4, 9]: 0.14 g/mL and 0.13 g/mL; Tapped density ([4]; tapped 200 times, single values of three parallel tests): 0.23 g/mL and 0.25 g/mL; Results of mechanical stability After grinding ([5]; manual grinding): The crystal form remains unchanged; Results of mechanical stability After tableting ([5]; tablet press, 350 MPa): The crystal form remains unchanged, but the crystallinity is slightly reduced; clinical observation ([6]; in vivo): no obvious abnormalities were found; k el ([6]; plasma, po, 6 mg/kg): 5.39e-05 s⁻¹; Crystal form Transform ([7]; 25°C/60% RH/4 weeks, open): No; Purity (area%) ([7]; 25°C/60% RH/4 weeks, open): 99.88 area%; Crystal form Transform ([7]; 40°C/75% RH/4 weeks, open): No; Purity (area%) ([7]; 40°C/75% RH/4 weeks, open): 99.88 area%; Crystal form Transform ([7]; 80°C/1 d, closed): No; Area (%) ([7]; 25°C/60% RH/4 weeks): 99.88%; Area (%) ([7]; 40°C/75% RH/4 weeks): 99.88%; Area (%) ([7]; 80°C/1 d): 99.87%
